Results: ChEMBL document CHEMBL3885861, “Open TG-GATES”

Species: Rattus norvegicus
Assay: Open TG-GATES - Regimen: Single
Format: toxicity, organism-based, Sprague-Dawley
Parameters: regimen Single, gender Male, age 6 weeks
Conditions: in vivo, po, 75 mg/kg, route gavage, dose level High; for APTT / Bas / Eos / Fbg / Hb / Ht / Lym / MCH / MCHC / MCV / Mono / Neu / PT / Plat / RBC / Ret / WBC: tissue Blood; for KIDNEY_L / KIDNEY_R / KIDNEY_TOTAL: tissue Kidney; for LIVER: tissue Liver; for A/G / ALP / ALT / AST / BUN / CRE / Ca / Cl / DBIL / GLC / IP / K / LDH / Na / PL / RALB / TBIL / TC / TG / TP / gamma-GTP: tissue Plasma

## NC1=NC(=O)C(c2ccccc2)O1 (configuration not stated) [PEMOLINE]
3 h
  TERMINAL_BW: 208.2 g
  APTT: 16.9 s
  Bas: 0%
  Eos: 0.8%
  Fbg: 306.8 mg/dL
  Hb: 13.3 g/dL
  Ht: 39.3%
  Lym: 74.8%
  MCH: 21.9 pg
  MCHC: 33.9%
  MCV: 64.8 fL
  Mono: 2.6%
  Neu: 20.8%
  PT: 13.3 s
  Plat: 129.3 x10_4/uL
  RBC: 606.8 x10_4/ul
  Ret: 9.4%
  WBC: 99.2 x10_2/uL
  KIDNEY_L: 0.9 g
  KIDNEY_R: 0.9 g
  KIDNEY_TOTAL: 1.7 g
  LIVER: 8.9 g
  A/G: 1
  ALP: 1509.8 IU/L
  ALT: 46.4 IU/L
  AST: 87.6 IU/L
  BUN: 7.8 mg/dL
  CRE: 0.2 mg/dL
  Ca: 10.4 mg/dL
  Cl: 108.2 meq/L
  DBIL: 0.012 mg/dL
  GLC: 188.6 mg/dL
  IP: 8.2 mg/dL
  K: 3.7 meq/L
  LDH: 74.6 IU/L
  Na: 141.6 meq/L
  PL: 132.8 mg/dL
  RALB: 2.8 g/dL
  TBIL: 0.042 mg/dL
  TC: 80 mg/dL
  TG: 36.8 mg/dL
  TP: 5.5 g/dL
  gamma-GTP: 1.8 IU/L
6 h
  TERMINAL_BW: 208.1 g
  APTT: 17.1 s
  Bas: 0%
  Eos: 1%
  Fbg: 280.8 mg/dL
  Hb: 13.6 g/dL
  Ht: 40.2%
  Lym: 75.2%
  MCH: 22 pg
  MCHC: 33.9%
  MCV: 64.9 fL
  Mono: 3%
  Neu: 20%
  PT: 13.6 s
  Plat: 118.6 x10_4/uL
  RBC: 620.2 x10_4/ul
  Ret: 9.3%
  WBC: 89.6 x10_2/uL
  KIDNEY_L: 0.9 g
  KIDNEY_R: 0.9 g
  KIDNEY_TOTAL: 1.8 g
  LIVER: 7.6 g
  A/G: 1
  ALP: 1507.8 IU/L
  ALT: 40.6 IU/L
  AST: 104.8 IU/L
  BUN: 9 mg/dL
  CRE: 0.2 mg/dL
  Ca: 10.3 mg/dL
  Cl: 108.4 meq/L
  DBIL: 0.01 mg/dL
  GLC: 168.8 mg/dL
  IP: 9.3 mg/dL
  K: 3.7 meq/L
  LDH: 110.8 IU/L
  Na: 140.8 meq/L
  PL: 119 mg/dL
  RALB: 2.7 g/dL
  TBIL: 0.05 mg/dL
  TC: 77.4 mg/dL
  TG: 14 mg/dL
  TP: 5.4 g/dL
  gamma-GTP: 1 IU/L
9 h
  TERMINAL_BW: 209.6 g
  APTT: 17.2 s
  Bas: 0%
  Eos: 0.6%
  Fbg: 330.2 mg/dL
  Hb: 13.7 g/dL
  Ht: 40.1%
  Lym: 71.6%
  MCH: 22.2 pg
  MCHC: 34.2%
  MCV: 65 fL
  Mono: 2.2%
  Neu: 25%
  PT: 13.1 s
  Plat: 113 x10_4/uL
  RBC: 617.8 x10_4/ul
  Ret: 9.2%
  WBC: 80.9 x10_2/uL
  KIDNEY_L: 0.9 g
  KIDNEY_R: 0.9 g
  KIDNEY_TOTAL: 1.8 g
  LIVER: 7.3 g
  A/G: 1
  ALP: 1405.6 IU/L
  ALT: 34.4 IU/L
  AST: 89 IU/L
  BUN: 9 mg/dL
  CRE: 0.2 mg/dL
  Ca: 10.3 mg/dL
  Cl: 107.8 meq/L
  DBIL: 0.01 mg/dL
  GLC: 190.4 mg/dL
  IP: 10.4 mg/dL
  K: 3.5 meq/L
  LDH: 82 IU/L
  Na: 141.2 meq/L
  PL: 122.2 mg/dL
  RALB: 2.9 g/dL
  TBIL: 0.044 mg/dL
  TC: 75.6 mg/dL
  TG: 9.4 mg/dL
  TP: 5.7 g/dL
  gamma-GTP: 1.2 IU/L
24 h
  TERMINAL_BW: 200.9 g
  APTT: 15.7 s
  Bas: 0%
  Eos: 1%
  Fbg: 324.8 mg/dL
  Hb: 13.3 g/dL
  Ht: 38.1%
  Lym: 78.8%
  MCH: 21.9 pg
  MCHC: 34.8%
  MCV: 62.9 fL
  Mono: 2.2%
  Neu: 17.6%
  PT: 13.1 s
  Plat: 112.1 x10_4/uL
  RBC: 606.6 x10_4/ul
  Ret: 8.5%
  WBC: 84.2 x10_2/uL
  KIDNEY_L: 0.9 g
  KIDNEY_R: 0.9 g
  KIDNEY_TOTAL: 1.9 g
  LIVER: 8.6 g
  A/G: 1
  ALP: 1471 IU/L
  ALT: 40.8 IU/L
  AST: 92.6 IU/L
  BUN: 14 mg/dL
  CRE: 0.2 mg/dL
  Ca: 10.6 mg/dL
  Cl: 104.8 meq/L
  DBIL: 0.014 mg/dL
  GLC: 177.6 mg/dL
  IP: 8.6 mg/dL
  K: 4.1 meq/L
  LDH: 66.2 IU/L
  Na: 141.4 meq/L
  PL: 127.6 mg/dL
  RALB: 2.7 g/dL
  TBIL: 0.038 mg/dL
  TC: 80.4 mg/dL
  TG: 38.2 mg/dL
  TP: 5.4 g/dL
  gamma-GTP: 1 IU/L
